Earlier results as cited in patent US20230218693A1, “HEMP SPROUT PRODUCTS AND METHODS FOR PRODUCING SAME” (priority 2020, published 2023).
Read-outs that look alike come from different tables or passages of the source.

Legend:
COX-1 [1] = tested on: COX-1
5-LO [2] = target: T1, 5-LO (Homo sapiens, UniProt P09917); conditions: 5-LO cell-free
T1 sequence (P09917 1-674): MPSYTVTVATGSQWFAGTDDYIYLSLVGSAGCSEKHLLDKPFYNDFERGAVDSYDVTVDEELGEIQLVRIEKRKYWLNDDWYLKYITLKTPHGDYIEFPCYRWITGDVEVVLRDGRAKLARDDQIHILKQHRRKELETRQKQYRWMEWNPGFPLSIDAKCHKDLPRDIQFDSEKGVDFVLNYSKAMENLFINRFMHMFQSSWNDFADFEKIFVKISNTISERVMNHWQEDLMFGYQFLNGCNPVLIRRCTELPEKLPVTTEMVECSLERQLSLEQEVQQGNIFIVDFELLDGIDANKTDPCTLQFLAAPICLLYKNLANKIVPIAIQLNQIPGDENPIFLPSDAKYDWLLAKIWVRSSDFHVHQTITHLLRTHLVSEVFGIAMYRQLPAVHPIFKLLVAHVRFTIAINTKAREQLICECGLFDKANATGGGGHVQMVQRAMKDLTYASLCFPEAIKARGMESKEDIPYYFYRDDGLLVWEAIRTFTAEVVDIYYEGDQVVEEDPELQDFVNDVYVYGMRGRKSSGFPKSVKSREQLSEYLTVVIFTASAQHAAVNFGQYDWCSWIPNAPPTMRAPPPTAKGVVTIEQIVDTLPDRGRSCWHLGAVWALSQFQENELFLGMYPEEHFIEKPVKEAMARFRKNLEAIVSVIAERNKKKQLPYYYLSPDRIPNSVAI

COX-1 [3] = target: T2, COX-1 (Homo sapiens, UniProt P23219); conditions: COX-1, platelets
T2 construct: endogenous in cells; host or cells: freshly isolated human blood cells (platelets, according to the assay name)

COX-2 [4] = target: T3, COX-2 (Homo sapiens, UniProt P35354)
T3 sequence (P35354 18-604): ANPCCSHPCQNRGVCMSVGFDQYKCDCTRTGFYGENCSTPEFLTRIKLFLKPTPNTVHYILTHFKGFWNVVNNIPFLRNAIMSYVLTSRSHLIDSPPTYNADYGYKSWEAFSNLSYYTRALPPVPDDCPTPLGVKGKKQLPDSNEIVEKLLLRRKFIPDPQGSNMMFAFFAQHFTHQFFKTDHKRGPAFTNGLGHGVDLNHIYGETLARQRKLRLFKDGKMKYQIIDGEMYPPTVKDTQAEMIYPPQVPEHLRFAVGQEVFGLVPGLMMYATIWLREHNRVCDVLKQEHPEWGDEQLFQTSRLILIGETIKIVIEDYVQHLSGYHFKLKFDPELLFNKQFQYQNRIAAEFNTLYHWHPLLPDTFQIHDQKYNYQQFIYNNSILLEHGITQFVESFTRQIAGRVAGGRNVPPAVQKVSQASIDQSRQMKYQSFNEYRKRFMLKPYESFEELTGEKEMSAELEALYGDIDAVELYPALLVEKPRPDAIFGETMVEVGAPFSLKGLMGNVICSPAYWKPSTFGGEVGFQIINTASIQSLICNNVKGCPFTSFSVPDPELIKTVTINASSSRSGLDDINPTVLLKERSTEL

cPLA2 = target: T4, cPLA2 (Homo sapiens, UniProt P47712); conditions: cPLA2, cell-free
T4 sequence (P47712 1-749): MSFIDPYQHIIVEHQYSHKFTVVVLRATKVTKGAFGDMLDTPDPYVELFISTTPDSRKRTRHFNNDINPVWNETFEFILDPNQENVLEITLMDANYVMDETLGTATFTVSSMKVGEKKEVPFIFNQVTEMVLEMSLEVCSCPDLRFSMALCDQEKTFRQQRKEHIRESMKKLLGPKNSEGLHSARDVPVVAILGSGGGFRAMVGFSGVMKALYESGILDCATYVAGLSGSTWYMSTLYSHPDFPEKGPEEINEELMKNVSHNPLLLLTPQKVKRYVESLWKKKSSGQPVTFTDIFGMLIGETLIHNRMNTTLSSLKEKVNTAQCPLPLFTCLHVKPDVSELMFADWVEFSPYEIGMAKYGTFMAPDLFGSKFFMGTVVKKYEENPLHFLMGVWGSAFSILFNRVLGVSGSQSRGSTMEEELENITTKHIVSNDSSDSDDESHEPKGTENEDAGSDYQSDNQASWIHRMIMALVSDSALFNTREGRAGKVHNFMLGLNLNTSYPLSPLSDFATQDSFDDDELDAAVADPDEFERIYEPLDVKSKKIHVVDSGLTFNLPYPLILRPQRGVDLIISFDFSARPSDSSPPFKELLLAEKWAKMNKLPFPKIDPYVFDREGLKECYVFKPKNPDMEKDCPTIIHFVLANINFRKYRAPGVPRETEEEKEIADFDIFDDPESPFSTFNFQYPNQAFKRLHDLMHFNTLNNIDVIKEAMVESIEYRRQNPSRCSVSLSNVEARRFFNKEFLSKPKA

mPGES-1 = target: T5, mPGES-1 (Homo sapiens, UniProt O14684)
T5 sequence (O14684 1-152): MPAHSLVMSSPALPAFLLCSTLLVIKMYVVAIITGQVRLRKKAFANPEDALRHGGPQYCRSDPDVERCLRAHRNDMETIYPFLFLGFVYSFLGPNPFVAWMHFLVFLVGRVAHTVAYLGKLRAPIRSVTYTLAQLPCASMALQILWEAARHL

[5] = tested on: freshly isolated human blood cells; conditions: for Effect on cell viability: human cells
PGE2 = conditions: result in words
COX-2 [6] = target: T3, COX-2; design: endogenous in cells; host or cells: freshly isolated human monocytes; conditions: COX-2, monocytes
5-LO [7] = target: T1, 5-LO; design: endogenous in cells; host or cells: freshly isolated human neutrophils (PMNL); conditions: PMNL
5-LO [8] = target: T1, 5-LO; design: endogenous in cells; host or cells: freshly isolated human neutrophils (PMNL); conditions: PMNL, A23187 + AA
[9] = result in words
[10] = result in words; remark: listed apart in the source
[11] = tested on: HepG2 human hepatic carcinoma cells; conditions: dose-dependently up to 500 μM

T2 sequence (P23219 24-599): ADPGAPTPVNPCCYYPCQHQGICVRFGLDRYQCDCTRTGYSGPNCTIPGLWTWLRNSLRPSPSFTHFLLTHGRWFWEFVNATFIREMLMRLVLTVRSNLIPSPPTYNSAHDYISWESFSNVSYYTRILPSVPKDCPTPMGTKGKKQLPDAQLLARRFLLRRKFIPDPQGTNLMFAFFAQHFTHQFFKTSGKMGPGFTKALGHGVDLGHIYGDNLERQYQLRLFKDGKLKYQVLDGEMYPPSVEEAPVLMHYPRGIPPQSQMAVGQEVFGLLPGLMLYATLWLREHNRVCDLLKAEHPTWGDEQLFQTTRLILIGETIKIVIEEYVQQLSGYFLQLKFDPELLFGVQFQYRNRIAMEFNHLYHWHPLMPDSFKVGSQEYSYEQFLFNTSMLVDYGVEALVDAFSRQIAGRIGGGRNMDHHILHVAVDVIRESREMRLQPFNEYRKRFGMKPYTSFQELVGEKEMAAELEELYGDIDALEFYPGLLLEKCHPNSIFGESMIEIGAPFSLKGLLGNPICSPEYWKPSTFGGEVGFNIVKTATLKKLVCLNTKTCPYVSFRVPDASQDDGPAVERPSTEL

COc1ccc2c(c1)c(CC(=O)O)c(C)n2C(=O)c1ccc(Cl)cc1 [Indomethacin, reference compound]
Reference control, % inhibition at indic. conc. (COX-1 [1]; COX-1, cell-free, 20 μM): Indomethacin (20 μM), 81 ± 8%

CC(c1cc2ccccc2s1)N(O)C(N)=O (stereo not shown) [Zileuton, reference compound]
Reference control, % inhibition at indic. conc. (5-LO [2]; 3 μM): Zileuton (3 μM), 80 ± 4%

COc1cc(-c2cc(=O)c3c(O)c(C/C=C(\C)CCC=C(C)C)c(O)cc3o2)ccc1O [CFA, Cannflavin A]
% inhibition at 10 μM (COX-1 [3]; 10 μM, vs vehicle (0.1% DMSO)): 26 ± 2% | IC50 (COX-1 [3]; added 15 min prior induction, read-out: CFA(1) IC50): > 10000 nM | % inhibition at 10 μM (COX-1 [1]; COX-1, cell-free, 10 μM): 36 ± 2% | IC50 (COX-1 [1]; COX-1, cell-free, read-out: CFA(1) IC50): > 10000 nM | Inhibition of COX-1 (COX-1 [1]; result in words): did not significantly inhibit COX-1 | % inhibition at 10 μM (COX-2 [4]; COX-2, cell-free, 10 μM): 35 ± 12% | IC50 (COX-2 [4]; COX-2, cell-free, read-out: CFA(1) IC50): > 10000 nM | Inhibition of COX-2 (COX-2 [4]; result in words): did not significantly inhibit COX-2 | % inhibition at 10 μM (cPLA2; 10 μM): 26 ± 8% | IC50 (cPLA2; read-out: CFA(1) IC50): > 10000 nM | % inhibition at 10 μM (mPGES-1; mPGES-1, cell-free, 10 μM): 90 ± 1% | IC50 (mPGES-1; mPGES-1, cell-free, read-out: CFA(1) IC50): 1800 nM | Inhibition of mPGES-1 (mPGES-1; result in words): directly inhibited mPGES-1 | % inhibition at 10 μM (5-LO [2]; 10 μM): 88 ± 3% | IC50 (5-LO [2]; read-out: CFA(1) IC50): 900 nM | Effect in DPPH assay (antioxidant activity): No effect | Effect in DPPH assay (antioxidant activity) (listed as cannflavin A): did not demonstrate innate antioxidant activity | Effect on cell viability [5]: no effect | Effect on cell viability ([5]; listed as cannflavin A): no deleterious effects on human cell viability | Cytotoxicity ([5]; result in words): no evidence of cytotoxicity | Suppression of PGE2 (PGE2): suppressed PGE2 | % inhibition at 10 μM (COX-2 [6]; 10 μM): 56 ± 8% | IC50 (COX-2 [6]; read-out: CFA(1) IC50): 8800 nM | % inhibition at 10 μM (5-LO [7]; A23187, 10 μM): 98 ± 2% | IC50 (5-LO [7]; A23187, read-out: CFA(1) IC50): 2400 nM | % inhibition at 10 μM (5-LO [8]; 10 μM): 91 ± 1% | IC50 (5-LO [8]; read-out: CFA(1) IC50): 1600 nM

O=C(NCCc1ccc(O)cc1)C1=Cc2cc(O)c(O)cc2[C@H](c2ccc(O)c(O)c2)[C@H]1C(=O)NCCc1ccc(O)cc1 [cannabisin B]
Antioxidant activity against DPPH radicals [9]: demonstrated antioxidant activity against DPPH radicals | Inhibition of human LDL oxidation [10]: prominent inhibition of human LDL oxidation | Antiproliferative effects in HepG2 cells [11]: produced antiproliferative effects

O=C(/C=C/c1ccc(O)c(O)c1)NCCc1ccc(O)cc1 [caffeoyltyramine]
Antioxidant activity against DPPH radicals [9]: demonstrated antioxidant activity against DPPH radicals | Inhibition of human LDL oxidation [10]: prominent inhibition of human LDL oxidation
